The results in this text go back to patent US20240199587A1, “HETEROCYCLIC COMPOUNDS” (Hoffmann-La Roche Inc., priority 2021, published 2024).

The test has as its target T1, MAGL (Homo sapiens, UniProt Q99685).
T1 sequence (Q99685 1-303): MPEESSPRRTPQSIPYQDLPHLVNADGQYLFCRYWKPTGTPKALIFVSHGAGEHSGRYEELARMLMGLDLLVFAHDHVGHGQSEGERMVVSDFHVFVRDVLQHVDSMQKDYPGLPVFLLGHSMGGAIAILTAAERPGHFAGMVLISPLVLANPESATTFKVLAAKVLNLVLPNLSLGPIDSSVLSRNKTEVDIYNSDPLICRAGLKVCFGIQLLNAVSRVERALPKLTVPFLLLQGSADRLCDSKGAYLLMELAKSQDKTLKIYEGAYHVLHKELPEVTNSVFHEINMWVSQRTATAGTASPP
Description: 2-AG assay (MAGL inhibitory activity, hydrolysis of 2-arachidonoylglycerol to arachidonic acid followed by mass spectrometry). In kind it is biochemical. Conditions: 8 μM 2-arachidonoylglycerol, 15 min pre-incubation, 30 min incubation at RT, RapidFire MS readout. The procedure, abridged:
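Arachidonic acid released from 8 μM 2-arachidonoylglycerol was quantified by online SPE triple-quadrupole MS (negative ESI, 303.1→259.1), normalised to d8-arachidonic acid internal standard. Reaction ran 30 min at RT after 15 min RT compound pre-incubation with […] MAGL in TRIS/EDTA/Tween-20 buffer, 2.5% DMSO.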
With `O=C(N1CC(C23CC(c4nnc(C5CC5)o4)(C2)C3)C1)N1CC2(CC(n3cnc(C4CC4)n3)C2)C1` [Example 436, [3-[3-(5-cyclopropyl-1,3,4-oxadiazol-2-yl)-1-bicyclo[1.1.1]pentanyl]azetidin-1-yl]-[6-(3-cyclopropyl-1,2,4-triazol-1-yl)-2-azaspiro[3.3]heptan-2-yl]methanone], the IC50 (in general, the concentration that gives 50% inhibition) was found to be 9.82 nM.
Regarding `O=C(N1CC2(CC(n3cnc(C4CC4)n3)C2)C1)N1CC2(CCN(Cc3cnc(C(F)(F)F)cn3)C2)C1` [Example 437], the IC50 was determined as 6.37 nM.
Take `O=C(N1CC2(CC(n3cnc(C4CC4)n3)C2)C1)N1CC2(CCN(Cc3ccc(C(F)(F)F)nn3)C2)C1` [Example 438, [6-(3-cyclopropyl-1,2,4-triazol-1-yl)-2-azaspiro[3.3]heptan-2-yl]-[7-[[6-(trifluoromethyl)pyridazin-3-yl]methyl]-2,7-diazaspiro[3.4]octan-2-yl]methanone]: the midpoint of inhibition, the IC50, lay at 14.9 nM.
Under `O=C(N1CC2(CC(n3cnc(C4CC4)n3)C2)C1)N1CC2(CCN(Cc3ccc(C(F)(F)F)cn3)C2)C1` [Example 439, [6-(3-cyclopropyl-1,2,4-triazol-1-yl)-2-azaspiro[3.3]heptan-2-yl]-[7-[[5-(trifluoromethyl)-2-pyridyl]methyl]-2,7-diazaspiro[3.4]octan-2-yl]methanone] stands 3.74 nM.
With `O=C(N1CC(C23CC(CNC4(C(F)(F)F)CC4)(C2)C3)C1)N1CC2(CC(n3cnc(C4CC4)n3)C2)C1` [Example 444, [6-(3-cyclopropyl-1,2,4-triazol-1-yl)-2-azaspiro[3.3]heptan-2-yl]-[3-[3-[[[1-(trifluoromethyl)cyclopropyl]amino]methyl]-1-bicyclo[1.1.1]pentanyl]azetidin-1-yl]methanone], the IC50 is 0.05 nM.
The compound `O=C(N1CC(C23CC(NCC4(C(F)(F)F)CC4)(C2)C3)C1)N1CC2(CC(n3cnc(C4CC4)n3)C2)C1` [Example 445, [6-(3-cyclopropyl-1,2,4-triazol-1-yl)-2-azaspiro[3.3]heptan-2-yl]-[3-[3-[[1-(trifluoromethyl)cyclopropyl]methylamino]-1-bicyclo[1.1.1]pentanyl]azetidin-1-yl]methanone] came in with an IC50 of 0.3 nM. This IC50 lies about 6-fold higher than the previous one.
The same measure for `N=S(=O)(c1ccc(CC2CC3(C2)CN(C(=O)N2CC4(CC(n5cnc(C6CC6)n5)C4)C2)C3)cc1)C(F)(F)F` (stereo not drawn) [Example 446, [6-(3-cyclopropyl-1,2,4-triazol-1-yl)-2-azaspiro[3.3]heptan-2-yl]-[6-[[4-(trifluoromethylsulfonimidoyl)phenyl]methyl]-2-azaspiro[3.3]heptan-2-yl]methanone]: 0.06 nM; for `N=S(=O)(c1cccc(CC2CC3(C2)CN(C(=O)N2CC4(CC(n5cnc(C6CC6)n5)C4)C2)C3)c1)C(F)(F)F` (stereo not drawn) [Example 447, [6-(3-cyclopropyl-1,2,4-triazol-1-yl)-2-azaspiro[3.3]heptan-2-yl]−[6-[[3-(trifluoromethylsulfonimidoyl)phenyl]methyl]-2-azaspiro[3.3]heptan-2-yl]methanone]: 0.02 nM.
As to `CC1(Cc2nnc(-c3ccc(C4CN(C(=O)N5CC6(CC(n7cnc(C8CC8)n7)C6)C5)C4)cc3)[nH]2)CC1` [Example 448, [6-(3-cyclopropyl-1,2,4-triazol-1-yl)-2-azaspiro[3.3]heptan-2-yl]-[3-[4-[5-[(1-methylcyclopropyl)methyl]-4H-1,2,4-triazol-3-yl]phenyl]azetidin-1-yl]methanone], the IC50 is 0.93 nM.
For `O=C(N1CC2(CC(n3cnc(C4CC4)n3)C2)C1)N1CC2(CC(n3cnc(C(F)(F)F)n3)C2)C1` [Example 449, [6-(3-cyclopropyl-1,2,4-triazol-1-yl)-2-azaspiro[3.3]heptan-2-yl]-[6-[3-(trifluoromethyl)-1,2,4-triazol-1-yl]-2-azaspiro[3.3]heptan-2-yl]methanone], half-maximal inhibition (IC50) was put at 1.37 nM.
In turn, `O=C(N1CC2(CC(n3cnc(C4CC4)n3)C2)C1)N1CC2(CC(n3ncnc3C3CC3)C2)C1` [Example 450, [6-(3-cyclopropyl-1,2,4-triazol-1-yl)-2-azaspiro[3.3]heptan-2-yl]-[6-(5-cyclopropyl-1,2,4-triazol-1-yl)-2-azaspiro[3.3]heptan-2-yl]methanone] gave an IC50 of 71.4 nM. Compared with the last compound, the IC50 is about 52-fold higher.
`COc1cc(C(F)(F)F)ccc1CNC1CN(C(=O)N2CC3(CC(n4cnc(C(F)(F)F)n4)C3)C2)C1` [Example 451, [3-[[2-methoxy-4-(trifluoromethyl)phenyl]methylamino]azetidin-1-yl]-[6-[3-(trifluoromethyl)-1,2,4-triazol-1-yl]-2-azaspiro[3.3]heptan-2-yl]methanone] gave an IC50 of 31.7 nM.
As for `O=C(N1CC(c2ccc(N3CC(O)(C(F)(F)F)C3)nc2)C1)N1CC2(CC(n3cnc(C(F)(F)F)n3)C2)C1` [Example 452, [3-[6-[3-hydroxy-3-(trifluoromethyl)azetidin-1-yl]-3-pyridyl]azetidin-1-yl]-[6-[3-(trifluoromethyl)-1,2,4-triazol-1-yl]-2-azaspiro[3.3]heptan-2-yl]methanone], the IC50 was 3.69 nM.
For `CC1(O)CN(c2ccc(C3CN(C(=O)N4CC5(CC(n6cnc(C(F)(F)F)n6)C5)C4)C3)cn2)C1` [Example 453, [3-[6-(3-hydroxy-3-methyl-azetidin-1-yl)-3-pyridyl]azetidin-1-yl]-[6-[3-(trifluoromethyl)-1,2,4-triazol-1-yl]-2-azaspiro[3.3]heptan-2-yl]methanone], the IC50 stood at 39.4 nM.
With `O=C(N1CC2(CC(NS(=O)(=O)c3cccc(C(F)(F)F)c3)C2)C1)N1CC2(CC(n3cnc(C(F)(F)F)n3)C2)C1` [Example 454, 3-(trifluoromethyl)-N-[2-[6-[3-(trifluoromethyl)-1,2,4-triazol-1-yl]-2-azaspiro[3.3]heptane-2-carbonyl]-2-azaspiro[3.3]heptan-6-yl]benzenesulfonamide], the IC50 came out at 0.71 nM.
On to `CS(=O)(=O)c1ccc(CC2CC3(C2)CN(C(=O)N2CC4(CC(n5cnc(C(F)(F)F)n5)C4)C2)C3)cc1` [Example 455, [6-[(4-methylsulfonylphenyl)methyl]-2-azaspiro[3.3]heptan-2-yl]-[6-[3-(trifluoromethyl)-1,2,4-triazol-1-yl]-2-azaspiro[3.3]heptan-2-yl]methanone], for which inhibition was half-maximal at 1.25 nM (IC50).
The same measure for `CS(=O)(=O)c1cccc(CC2CC3(C2)CN(C(=O)N2CC4(CC(n5cnc(C(F)(F)F)n5)C4)C2)C3)c1` [Example 456, [6-[(3-methylsulfonylphenyl)methyl]-2-azaspiro[3.3]heptan-2-yl]-[6-[3-(trifluoromethyl)-1,2,4-triazol-1-yl]-2-azaspiro[3.3]heptan-2-yl]methanone]: 1.16 nM.
Compound `CS(=O)(=O)c1cncc(CC2CC3(C2)CN(C(=O)N2CC4(CC(n5cnc(C(F)(F)F)n5)C4)C2)C3)c1` [Example 457, [6-[(5-methylsulfonyl-3-pyridyl)methyl]-2-azaspiro[3.3]heptan-2-yl]-[6-[3-(trifluoromethyl)-1,2,4-triazol-1-yl]-2-azaspiro[3.3]heptan-2-yl]methanone] displayed an IC50 of 11 nM.
`CS(=O)(=O)c1ccc(CC2CC3(C2)CN(C(=O)N2CC4(CC(n5cnc(C(F)(F)F)n5)C4)C2)C3)nc1` [Example 458, [6-[(5-methylsulfonyl-2-pyridyl)methyl]-2-azaspiro[3.3]heptan-2-yl]-[6-[3-(trifluoromethyl)-1,2,4-triazol-1-yl]-2-azaspiro[3.3]heptan-2-yl]methanone]: the IC50 is 19.4 nM.
Regarding `CS(=O)(=O)c1ccc(CC2CC3(C2)CN(C(=O)N2CC4(CC(n5cnc(C(F)(F)F)n5)C4)C2)C3)c(F)c1` [Example 459, [6-[(2-fluoro-4-methylsulfonyl-phenyl)methyl]-2-azaspiro[3.3]heptan-2-yl]-[6-[3-(trifluoromethyl)-1,2,4-triazol-1-yl]-2-azaspiro[3.3]heptan-2-yl]methanone], the IC50 was determined as 0.3 nM.
As for `CS(=O)(=O)c1cc(F)cc(CC2CC3(C2)CN(C(=O)N2CC4(CC(n5cnc(C(F)(F)F)n5)C4)C2)C3)c1` [Example 460, [6-[(3-fluoro-5-methylsulfonyl-phenyl)methyl]-2-azaspiro[3.3]heptan-2-yl]-[6-[3-(trifluoromethyl)-1,2,4-triazol-1-yl]-2-azaspiro[3.3]heptan-2-yl]methanone], the IC50 came to 0.93 nM. Compared with the last compound, the IC50 is about 3.1-fold higher.
Under `CS(=N)(=O)c1cccc(CC2CC3(C2)CN(C(=O)N2CC4(CC(n5cnc(C6CC6)n5)C4)C2)C3)c1` (stereo not drawn) [Example 461, [6-(3-cyclopropyl-1,2,4-triazol-1-yl)-2-azaspiro[3.3]heptan-2-yl]-[6-[[3-(methylsulfonimidoyl)phenyl]methyl]-2-azaspiro[3.3]heptan-2-yl]methanone] stands 1.79 nM; under `CS(=N)(=O)c1ccc(CC2CC3(C2)CN(C(=O)N2CC4(CC(n5cnc(C6CC6)n5)C4)C2)C3)cc1` (stereo not drawn) [Example 462, [6-(3-cyclopropyl-1,2,4-triazol-1-yl)-2-azaspiro[3.3]heptan-2-yl]-[6-[[4-(methylsulfonimidoyl)phenyl]methyl]-2-azaspiro[3.3]heptan-2-yl]methanone], 2.94 nM; under `O=C(N1CC2(CCN(Cc3ccc(C(F)(F)F)cn3)CC2)C1)N1CC2(CC(n3cnc(C4CC4)n3)C2)C1` [Example 463, [6-(3-cyclopropyl-1,2,4-triazol-1-yl)-2-azaspiro[3.3]heptan-2-yl]-[7-[[5-(trifluoromethyl)-2-pyridyl]methyl]-2,7-diazaspiro[3.5]nonan-2-yl]methanone], 2.42 nM.
